Measurements as given in patent US20120029015A1, “Novel medical use of kynurenic acid, its precursors and derivatives” (priority 2009, published 2012).
Marks after values point to notes of the source that are not given here.

Key:
Assay type in all cases: in vivo, Wistar rats
[1] = tested on: caerulein-induced destruction of pancreatic tissue (DPT); test: Water content of pancreatic tissue (pancreatic edema) in caerulein-induced destruction of pancreatic tissue; settings: for Water content of pancreas: 6 hours after inducing DPT, % of wet weight, mean
Description: The experiments were performed using adult male Wistar rats. All experimental procedures were in compliance with currently accepted guidelines for care and use of animals. The study protocol was approved by the Bioethics Committee. Before the experiment, rats were given no food for 24 hours, water was available in unrestricted quantities. Destruction of pancreatic tissue (DPT) was induced by injections of caerulein (dose of 15 μg/kg/hr). Animals were randomly assigned to the following groups. […] After 6 hours from inducing DPT antioxidative effects were determined by means of measuring the ferric reducing ability of plasma (FRAP) and levels of the markers of oxidative stress: malonyldialdehyde and 4-hydroxynonenals (MDA+4-HNE). The measurement of pancreatic edema, the serum α-amylase activity and histopathological analysis of pancreas were carried out to assess the progress of the disease. […] Kynurenic acid in the dose of 50 mg/kg/hrs was also effective (Table 1). Since kynurenic acid prevents edema induced by the pancreas damaging factor caerulein, kynurenic acid, its salts and derivatives may be used in prevention and therapy of conditions leading to injury of pancreatic tissue.

[2] = tested on: caerulein-induced destruction of pancreatic tissue (DPT); test: Plasma levels of lipid peroxidation products (MDA + 4-HNE) in caerulein-induced DPT; settings: KYNA 100 mg/kg/hr + caerulein, mean
Description: (§1) The experiments were performed using adult male Wistar rats. All experimental procedures were in compliance with currently accepted guidelines for care and use of animals. The study protocol was approved by the Bioethics Committee. Before the experiment, rats were given no food for 24 hours, water was available in unrestricted quantities. Destruction of pancreatic tissue (DPT) was induced by injections of caerulein (dose of 15 μg/kg/hr). Animals were randomly assigned to the following groups. […] After 6 hours from inducing DPT antioxidative effects were determined by means of measuring the ferric reducing ability of plasma (FRAP) and levels of the markers of oxidative stress: malonyldialdehyde and 4-hydroxynonenals (MDA+4-HNE). The measurement of pancreatic edema, the serum α-amylase activity and histopathological analysis of pancreas were carried out to assess the progress of the disease. In the group of animals with caerulein-induced destruction of pancreatic tissue significant increase of concentration of malonyldialdehyde (MDA) and 4-hydroxynonenals (4-HNE), two markers of oxidative stress, occurred.

[3] = tested on: caerulein-induced destruction of pancreatic tissue (DPT); test: Serum α-amylase activity in caerulein-induced DPT; settings: mean
Description: The experiments were performed using adult male Wistar rats. All experimental procedures were in compliance with currently accepted guidelines for care and use of animals. The study protocol was approved by the Bioethics Committee. Before the experiment, rats were given no food for 24 hours, water was available in unrestricted quantities. Destruction of pancreatic tissue (DPT) was induced by injections of caerulein (dose of 15 μg/kg/hr). Animals were randomly assigned to the following groups. […] After 6 hours from inducing DPT antioxidative effects were determined by means of measuring the ferric reducing ability of plasma (FRAP) and levels of the markers of oxidative stress: malonyldialdehyde and 4-hydroxynonenals (MDA+4-HNE). The measurement of pancreatic edema, the serum α-amylase activity and histopathological analysis of pancreas were carried out to assess the progress of the disease. The extent of the serum α-amylase elevation is roughly proportional to the degree of destruction of pancreatic tissue. In Table 3 it is shown that kynurenic acid in the dose of 100 mg/kg/hr prevents elevation of α-amylase in the serum of caerulein-treated rats. Kynurenic acid in the dose of 50 mg/kg/hrs was also effective. […]

[4] = tested on: caerulein-induced destruction of pancreatic tissue (DPT); test: Histological changes in pancreatic tissue in caerulein-induced DPT; settings: KYNA 100 mg/kg/hr + caerulein; mean ± SD; scale 0-3
Description: The experiments were performed using adult male Wistar rats. All experimental procedures were in compliance with currently accepted guidelines for care and use of animals. The study protocol was approved by the Bioethics Committee. Before the experiment, rats were given no food for 24 hours, water was available in unrestricted quantities. Destruction of pancreatic tissue (DPT) was induced by injections of caerulein (dose of 15 μg/kg/hr). Animals were randomly assigned to the following groups. […] After 6 hours from inducing DPT antioxidative effects were determined by means of measuring the ferric reducing ability of plasma (FRAP) and levels of the markers of oxidative stress: malonyldialdehyde and 4-hydroxynonenals (MDA+4-HNE). The measurement of pancreatic edema, the serum α-amylase activity and histopathological analysis of pancreas were carried out to assess the progress of the disease. Histopathological presentation of pancreas injury consists of edema, vacuolization or necrosis (Table 2). Since in the situation of application of a pancreas damaging agent caerulein kynurenic acid in the dose of 100 mg/kg/hr prevents or diminishes edema, vacuolization, and number of necrotic foci, kynurenic acid, its salts and derivatives may be of use in prevention and therapy of conditions leading to destruction of pancreatic tissue and are characterized by such histological picture.

[5] = tested on: caerulein-induced destruction of pancreatic tissue (DPT); test: Antioxidant capacity of plasma (FRAP) in caerulein-induced DPT; settings: KYNA 100 mg/kg/hr + caerulein, mean
Description: as §1, with “disease.” for “disease. In the group of animals with caerulein-induced destruction of pancreatic tissue significant increase of concentration of malonyldialdehyde (MDA) and 4-hydroxynonenals (4-HNE), two markers of oxidative stress, occurred.”

O=C(O)c1cc(O)c2ccccc2n1 [KYNA, kynurenic acid]
Water content of pancreas ([1]; KYNA 50 mg/kg/hr infusion + caerulein): 73.03* %
Water content of pancreas ([1]; KYNA 100 mg/kg/hr infusion + caerulein): 68.22* %
Macroscopic edema of pancreas ([1]; KYNA 100 mg/kg/hr infusion + caerulein, macroscopic presentation): no edema was noted
MDA + 4-HNE plasma level [2]: 3.11* nmol/ml
Serum α-amylase activity ([3]; KYNA 50 mg/kg/hr + caerulein): 5262.26^#* U/l
Serum α-amylase activity ([3]; KYNA 100 mg/kg/hr + caerulein): 3495.20* U/l
Edema (0-3), histological score [4]: 1.6 ± 0.45
Necrosis (0-3), histological score [4]: 0.0 ± 0.0
Vacuolisation (0-3), histological score [4]: 0.8 ± 0.44
FRAP (Ferric Reducing Ability of Plasma) [5]: 602.4* μM
